Test results: US4666842A, “Novel aldehyde oxidase and process for producing same” (Kyowa Hakko Kogyo Co., Inc., priority 1982, dated 1987)
Entries after “also recorded” stand apart in the source; their conditions may differ. Read-outs that look alike come from different tables or passages of the source.

Experiments:
[1] = system: aldehyde oxidase (the present enzyme); assay: Substrate specificity of the present aldehyde oxidase; assay type: biochemical, Pseudomonas sp No. 6233; conditions: for Relative activity (substrate specificity): purified enzyme of Example 1, formaldehyde = 100%
Protocol: (§1) The amount of enzyme for decomposing 1 μmol of acetaldehyde in the presence of oxygen at 37° C. in one minute is designated as one unit. Specific activity is expressed by unit per mg of protein. The amount of enzyme protein is measured according to the method of O. H. Lowry, N. J. Rosebrough, A. L. Farr and R. J. Randall, J. Biol. Chem., 193 265(1951) using a copper-Folin reagent.
(§2) The enzyme activity can be measured by allowing the hydrogen peroxide formed from acetaldehyde by the action of the enzyme to react with 4-aminoantipyrine and phenol in the presence of a peroxidase and by quantitatively determining the amount of quinoneimine formed. The reaction is illustrated by the following equations (1) and (2): [drawing 1]
(§3) The above reagents (1)-(6) are put into a test tube, thoroughly shaken, and left standing at 37° C. for 5 minutes. Then, the enzyme solution (7) is added to the test tube to make up a total volume of 3 ml, and the test tube is shaken at 37° C. for 10 minutes to complete the reaction. As a control, the procedure is repeated using water in place of the substrate. The absorbancies of the reaction solution and control at 500 nm are measured, and the difference between the absorbancies is obtained as ΔO.D.
(§4) One unit of aldehyde oxidase is the amount of enzyme for decomposing 1 μmole of acetaldehyde at 37° C. in one minute. The absorbancy coefficient of 1 mM quinoneimine is reported in Clin. Chem., 20, 470(1974) to be 5.33. Therefore, if the absorbancy (ΔO.D.) of 3 ml of the reaction solution at 500 nm as obtained in the procedure (C) is designation as a, titer (A) per ml of the enzyme solution can be given as follows: [formula]
(§5) II. Physical and chemical properties of the aldehyde oxidase of the present invention are described below (hereinafter, the aldehyde oxidase will be sometimes referred to merely as "the present enzyme"). A purified enzyme prepared in Example 1 is used as the aldehyde oxidase.
For example, formaldehyde, acetaldehyde and glyceraldehyde are oxidized to formic acid, acetic acid and glyceric acid respectively. The present enzyme acts upon a wide range of aldehydes, for example, saturated aliphatic aldehydes such as formaldehyde, acetaldehyde, propionaldehyde, n-valeraldehyde, n-hexylaldehyde, heptylaldehyde, etc.; unsaturated aliphatic aldehydes such as crotonaldehyde, citral, etc.; aromatic aldehydes such as benzaldehyde, etc.; D- or L-glyceraldehyde, etc.
In the following Table 1, the relative activity of the present enzyme upon various substrates is set forth.

[2] = system: aldehyde oxidase (the present enzyme); assay type: biochemical, Pseudomonas sp No. 6233
Protocol: as §1, §2, §3, §4, §5
The present enzyme is inhibited by mercuric chloride and p-chloromercuriphenylsulfonic acid, and thus it appears that an SH group takes part in the reaction.

[3] = molecular target: T1, aldehyde oxidase of animal origin (Oryctolagus cuniculus, UniProt P80456); conditions: known enzyme, literature; cited from earlier work
T1 sequence (P80456 1-1334): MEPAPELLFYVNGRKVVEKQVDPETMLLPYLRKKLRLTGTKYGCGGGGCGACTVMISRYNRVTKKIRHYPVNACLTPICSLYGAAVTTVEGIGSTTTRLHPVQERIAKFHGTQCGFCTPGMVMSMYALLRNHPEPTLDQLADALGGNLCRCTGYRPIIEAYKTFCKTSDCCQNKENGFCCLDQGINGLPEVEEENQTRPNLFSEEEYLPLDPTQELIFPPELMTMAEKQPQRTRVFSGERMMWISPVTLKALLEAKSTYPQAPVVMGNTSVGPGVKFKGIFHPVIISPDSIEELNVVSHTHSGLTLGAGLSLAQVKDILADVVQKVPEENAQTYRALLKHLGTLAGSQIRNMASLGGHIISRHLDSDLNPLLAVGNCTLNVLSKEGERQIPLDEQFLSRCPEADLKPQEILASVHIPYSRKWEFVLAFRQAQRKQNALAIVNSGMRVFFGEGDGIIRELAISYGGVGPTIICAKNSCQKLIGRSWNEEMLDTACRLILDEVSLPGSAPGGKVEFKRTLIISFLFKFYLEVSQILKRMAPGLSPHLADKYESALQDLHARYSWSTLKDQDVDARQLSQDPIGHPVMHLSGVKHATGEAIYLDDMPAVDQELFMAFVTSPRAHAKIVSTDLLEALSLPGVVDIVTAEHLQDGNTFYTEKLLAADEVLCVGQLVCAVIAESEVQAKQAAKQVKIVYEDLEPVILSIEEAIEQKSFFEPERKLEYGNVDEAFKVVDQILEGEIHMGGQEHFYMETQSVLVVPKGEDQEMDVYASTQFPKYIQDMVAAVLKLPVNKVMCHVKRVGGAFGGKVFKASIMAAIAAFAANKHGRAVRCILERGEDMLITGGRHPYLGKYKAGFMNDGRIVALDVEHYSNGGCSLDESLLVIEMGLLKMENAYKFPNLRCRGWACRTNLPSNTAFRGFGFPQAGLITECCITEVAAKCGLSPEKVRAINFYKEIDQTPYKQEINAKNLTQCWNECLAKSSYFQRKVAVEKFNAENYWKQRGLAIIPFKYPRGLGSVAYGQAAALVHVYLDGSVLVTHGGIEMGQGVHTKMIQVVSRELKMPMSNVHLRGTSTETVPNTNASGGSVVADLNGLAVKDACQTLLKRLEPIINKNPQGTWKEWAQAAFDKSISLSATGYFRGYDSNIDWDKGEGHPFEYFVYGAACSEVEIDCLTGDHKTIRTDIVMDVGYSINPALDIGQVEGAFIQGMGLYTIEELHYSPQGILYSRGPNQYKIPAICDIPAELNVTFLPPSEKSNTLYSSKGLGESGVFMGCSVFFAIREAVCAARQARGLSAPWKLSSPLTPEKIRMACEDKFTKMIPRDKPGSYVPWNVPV

[4] = molecular target: T1, aldehyde oxidase of animal origin; assay type: biochemical
From the text: *aldehyde oxidase of animal origin for comparison purposes.

[5] = concentration 0.1 mM, none = 100

Compound	action of the present enzyme upon the substrate [1]	Relative activity (substrate specificity) [1] [%]	other results
CC=O [Acetaldehyde]	acts upon	266	–
[Ba+2].[Cl-].[Cl-] [BaCl2]	–	–	Relative activity (%) [2, 5]: 87%
O=Cc1ccccc1 [Benzaldehyde]	acts upon	93	–
CC(=O)O [Ca(CH3 COO)2]	–	–	Relative activity (%) ([2]; 1000 µM): 109%
CC(C)=CCCC(C)=CC=O [Citral]	acts upon	291	–
[Cl-].[Cl-].[Co+2] [CoCl2]	–	–	Relative activity (%) ([2]; concentration 1 mM, none = 100): 104%
C/C=C/C=O [Crotonaldehyde]	acts upon	260	–
O=S(=O)([O-])[O-].[Cu+2] [CuSO4]	–	–	Relative activity (%) [2, 5]: 20%
O=C[C@H](O)CO [D-Glyceraldehyde]	acts upon	270	–
CCO [Ethanol]	does not act upon	0	–
O=S(=O)([O-])[O-].[Fe+2] [FeSO4]	–	–	Relative activity (%) [2, 5]: 100%
C=O [Formaldehyde]	acts upon	100	–
CCCCCCC=O [Heptylaldehyde]	acts upon	387	–
[Cl][Hg][Cl] [HgCl2, mercuric chloride]	–	–	Relative activity (%) [2, 5]: 0%; inhibition of the present enzyme [2]: inhibited
NO [Hydroxylamine]	–	–	Relative activity (%) ([2]; concentration 1 mM, none = 100): 110%
O=c1[nH]cnc2nc[nH]c12 [Hypoxanthine]	does not have any catalytic action	0	action of aldehyde oxidase of animal origin upon the substrate [3]: acts upon
O=C[C@@H](O)CO [L-Glyceraldehyde]	acts upon	23	–

Compound	action of the present enzyme upon the substrate [1]	Relative activity (substrate specificity) [1] [%]	other results
CO [Methanol]	does not act upon	0	–
O=S(=O)([O-])[O-].[Mg+2] [MgSO4]	–	–	Relative activity (%) ([2]; concentration 1 mM, none = 100): 97%
[Cl][Mn][Cl] [MnCl2]	–	–	Relative activity (%) ([2]; concentration 1 mM, none = 100): 106%
C[n+]1cccc(C(N)=O)c1 [N'--Methylnicotinamide]	does not act upon	0	–
c1cnc2c(c1)ccc1cccnc12 [O--Phenanthroline]	–	–	Relative activity (%) ([2]; concentration 1 mM, none = 100): 103%
CCC=O [Propionaldehyde]	acts upon	285	–
c1ncc2[nH]cnc2n1 [Purine]	does not have any catalytic action	0	action of aldehyde oxidase of animal origin upon the substrate [3]: acts upon
C=C[C@H]1C[N@@]2CC[C@H]1C[C@H]2[C@H](O)c1ccnc2ccc(OC)cc12 [Quinine]	does not have any catalytic action; also recorded: does not act upon	0	–
c1ccc2ncccc2c1 [Quinoline]	does not act upon	0	–
ON=Cc1ccccc1O [Salicylaldoxime]	–	–	Relative activity (%) ([2]; 1000 µM): 91%
[Cl-].[Cl-].[Sr+2] [SrCl2]	–	–	Relative activity (%) ([2]; concentration 1 mM, none = 100): 94%
[Cl-].[Cl-].[Zn+2] [ZnCl2]	–	–	Relative activity (%) ([2]; concentration 1 mM, none = 100): 103%
CCCCCC=O [n-Hexylaldehyde]	acts upon	390	–
CCCCC=O [n-Valeraldehyde]	acts upon	367	–
O=S(=O)(O)c1cc[c]([Hg][Cl])cc1 [p-Chloromercuriphenylsulfonic acid, p-chloromercuriphenylsulfonic acid]	–	–	Relative activity (%) [2, 5]: 0%; inhibition of the present enzyme [2]: inhibited
c1ccc(-c2ccccn2)nc1 [α, α'-Dipyridyl]	–	–	Relative activity (%) ([2]; concentration 1 mM, none = 100): 85%
Antimycin A	–	–	Relative activity (%) ([2]; concentration 2 × 10^-3 mM, none = 100, 2 µM): 94%; inhibition of the present enzyme [2]: not strongly inhibited; Relative activity (%), aldehyde oxidase of animal origin ([4]; concentration 2 × 10^-3 mM, value in brackets, for comparison, 2 µM): 38%; inhibition of the known aldehyde oxidase of animal origin ([4]; known aldehyde oxidase): strongly inhibited
